Measurements reported in ChEMBL document CHEMBL4392885, “Investigation of Premyrsinane and Myrsinane Esters in Euphorbia cupanii and Euphobia pithyusa with MS2LDA and Combinatorial Molecular Network Annotation Propagation” (J Nat Prod, 2019).

Assays:
[1] = Selectivity index, ratio of CC50 for African green monkey Vero A cells to EC50 for Chikungunya virus Indian ocean strain 899 infected in African green monkey Vero A cells; assay type: toxicity; conditions: read-out: Ratio CC50/EC50
Chikungunya virus = test: Antiviral activity against Chikungunya virus Indian ocean strain 899 infected in African green monkey Vero A cells assessed as reduction in viral-induced cytopathic effect after 6 to 7 days by MTS/PMS assay; assay type: functional, organism-based; conditions: Indian ocean strain 899, Vero

SMILES | selectivity ratio [1] | EC50 (Chikungunya virus) [nM]
CCCCC/C=C/C=C\C(=O)O[C@@H]1[C@@H](C)[C@@]2(O)[C@@H](C(=O)C(CO)=C[C@]3(O)C(=O)C(C)=C[C@@H]23)[C@@H]2C(C)(C)[C@]12OC(=O)C(C)C | 6.3 | 4500
CCCCC/C=C\C=C\C(=O)O[C@@H]1[C@@H](C)[C@@]2(O)[C@@H](C=C(CO)C[C@]3(O)C(=O)C(C)=C[C@@H]23)[C@@H]2C(C)(C)[C@]12OC(=O)C(C)C | > 12 | < 800
CCCCC/C=C\C=C\C(=O)O[C@@H]1[C@@H](C)[C@@]2(O)[C@@H](C=C(CO)C[C@]3(O)C(=O)C(C)=C[C@@H]23)[C@@H]2C(C)(C)[C@]12OC(=O)C(C)CC (stereo partly drawn) | > 12 | < 800
CCCCC/C=C/C=C\C(=O)O[C@@H]1[C@@H](C)[C@@]2(O)[C@@H](C=C(CO)C[C@]3(O)C(=O)C(C)=C[C@@H]23)[C@@H]2C(C)(C)[C@]12OC(=O)C(C)C | > 12 | < 800
